This is an account of results in patent US20240246946A1, “MODULATORS OF TREX1” (Constellation Pharmaceuticals, Inc., priority 2021, published 2024).

One may read the IC50 as the concentration that gives 50% inhibition.

Assay [1] deals with T1, human TREX2 (residues M44-A279) (Homo sapiens, UniProt Q9BQ50).
T1 construct: human TREX2 (residues M44-A279, expressed in E. coli); made in house; host or cells: E. coli
T1 sequence (Q9BQ50 44-279 isoform Q9BQ50-1): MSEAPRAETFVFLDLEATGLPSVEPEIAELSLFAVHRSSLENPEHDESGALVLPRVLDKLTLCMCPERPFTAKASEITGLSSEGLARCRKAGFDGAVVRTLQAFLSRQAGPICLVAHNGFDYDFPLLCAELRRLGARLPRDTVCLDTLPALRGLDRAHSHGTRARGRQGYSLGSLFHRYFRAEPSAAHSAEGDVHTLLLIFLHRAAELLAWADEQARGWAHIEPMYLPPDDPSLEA
Description: hTREX2 Biochemical Assay (fluorescence, dsDNA substrate degradation). The note with it: biochemical selectivity for hTREX1 vs hTREX2. The gist of the method: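 N-His-Tev E. coli enzyme (50 pM) pre-incubated with compound 4 h at 25 °C, then 60 nM TEX615/quencher dsDNA added; 18 h at 25 °C, pH 7.4 Tris buffer with 5 mM MgCl2, 1.0% DMSO. EDTA-quenched; fluorescence 570 ex/615 em from liberated fluorophore, 10-point dose-response.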

A further assay concerns the target T2, full length human TREX1 (Homo sapiens, UniProt Q9NSU2).
T2 construct: N-terminally His-Tev tagged full length human TREX1; made in house; host or cells: E. coli
T2 sequence (Q9NSU2 1-314): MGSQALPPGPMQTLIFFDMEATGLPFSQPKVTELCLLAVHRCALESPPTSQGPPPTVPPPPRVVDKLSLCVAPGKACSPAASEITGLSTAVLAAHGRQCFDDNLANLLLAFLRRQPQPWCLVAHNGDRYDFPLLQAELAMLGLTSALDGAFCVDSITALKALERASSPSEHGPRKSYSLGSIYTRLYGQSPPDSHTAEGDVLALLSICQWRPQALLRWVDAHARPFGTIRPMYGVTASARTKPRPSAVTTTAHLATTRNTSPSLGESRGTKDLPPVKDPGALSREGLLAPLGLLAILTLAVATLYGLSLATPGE
Description: hTREX1 Biochemical Assay (fluorescence, dsDNA substrate degradation). The note with it: biochemical, read-out: hTREX1 IC50. The gist of the method:
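Cleavage of 60 nM TEX615/quencher-labelled dsDNA in pH 7.4 Tris buffer with 5 mM MgCl2, 1.0% DMSO, run 18 hours at 25° C, EDTA-quenched; fluorescence read-out.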

The target of a further assay is T3, full length mouse TREX1 (Mus musculus, UniProt Q91XB0).
T3 construct: N-terminally His-Tev tagged full length mouse TREX1; made in house; host or cells: E. coli
T3 sequence (Q91XB0 1-314): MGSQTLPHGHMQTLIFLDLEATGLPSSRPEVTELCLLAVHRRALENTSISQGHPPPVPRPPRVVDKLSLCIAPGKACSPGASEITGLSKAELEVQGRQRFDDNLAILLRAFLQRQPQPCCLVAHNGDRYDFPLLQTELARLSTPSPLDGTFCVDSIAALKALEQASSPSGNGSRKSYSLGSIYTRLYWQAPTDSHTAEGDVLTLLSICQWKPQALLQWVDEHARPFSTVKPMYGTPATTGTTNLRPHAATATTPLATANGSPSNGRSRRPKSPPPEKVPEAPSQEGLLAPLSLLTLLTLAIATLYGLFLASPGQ
Description: mTREX1 Biochemical Assay (fluorescence, dsDNA substrate degradation). Conditions: biochemical, read-out: mTREX1 IC50. In short, it runs like this: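 Reaction run 18 h at 25° C. with 60 nM TEX615/quencher-labelled dsDNA and 6 pM mouse TREX1 in Tris buffer (pH 7.4, 5 mM MgCl2, 1.0% DMSO), enzyme having sat 4 h with compound across 10 concentrations. EDTA quench; substrate degradation measured as fluorescence increase.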

Take `CC(c1nc(C(=O)Nc2cnoc2)c(O)c(=O)n1C)C(c1cnn(CC(C)(C)O)c1)c1cc(F)ccc1Cl` (single isomer, unassigned) [Example 92 D1E2]: the “hTREX1 vs hTREX2 selectivity” value in assay [1] was “A (A = <25 fold selective for hTREX1)”. Also, the IC50 on full length human TREX1 was 1 to 10 nM; on full length mouse TREX1, greater than 10 nM.
In the case of `Cc1cnc(C)c(C(c2cc(F)ccc2Cl)C(C)c2nc(C(=O)Nc3cnoc3)c(O)c(=O)n2C)n1` (single isomer, unassigned) [Example 121 D1E2], in assay [1], the “hTREX1 vs hTREX2 selectivity” value is recorded as “A (A = <25 fold selective for hTREX1)”. Besides, the IC50 on full length human TREX1 and at full length mouse TREX1 was greater than 10 nM in each case.
Regarding `CCn1cc(C(c2cc(F)ccc2Cl)C(C)c2nc(C(=O)Nc3cnoc3)c(O)c(=O)n2C)cn1` (single isomer, unassigned) [Example 60 D1E2], the “hTREX1 vs hTREX2 selectivity” value in assay [1] is reported as “A (A = <25 fold selective for hTREX1)”. Also, the IC50 is 1 to 10 nM on full length human TREX1 and greater than 10 nM on full length mouse TREX1.
For `CC(c1nc(C(=O)Nc2cnoc2)c(O)c(=O)n1C)C(c1cnn(C(F)(F)F)c1)c1ccccc1C#N` (single isomer, unassigned) [Example 151 D1E2] the same measures were “A (A = <25 fold selective for hTREX1)”, greater than 10 nM and greater than 10 nM.
Take `CC(c1nc(C(=O)Nc2cnoc2)c(O)c(=O)n1C)C(c1ccccc1)c1cccnc1C#N` (single isomer, unassigned) [Example 155 D2E2]: the “hTREX1 vs hTREX2 selectivity” value in assay [1] is on record as “A (A = <25 fold selective for hTREX1)”. In addition, the IC50 at full length human TREX1 and at full length mouse TREX1 was greater than 10 nM in each case.
With `CC(c1nc(C(=O)Nc2cnoc2)c(O)c(=O)n1C)C(c1ccccc1)c1cccnc1C#N` (single isomer, unassigned) [Example 155 D1E1], the “hTREX1 vs hTREX2 selectivity” value in assay [1] was “B (B = 25 to 50-fold selective for hTREX1)”. Besides, the IC50 on full length human TREX1 and at full length mouse TREX1 was greater than 10 nM throughout.
Consider `CC(c1nc(C(=O)Nc2cnoc2)c(O)c(=O)n1C)C(c1ccccc1Cl)c1cnn(C)c1C#N` (single isomer, unassigned) [Example 96 D1E2], for which the “hTREX1 vs hTREX2 selectivity” value in assay [1] is “A (A = <25 fold selective for hTREX1)”. The IC50 on full length human TREX1 and at full length mouse TREX1 was greater than 10 nM in each case.
For `Cn1cc(C(c2ccccc2C#N)C(c2nc(C(=O)Nc3cnoc3)c(O)c(=O)n2C)C(F)(F)F)cn1` (single isomer, unassigned) [Example 40 D2E2], the “hTREX1 vs hTREX2 selectivity” value in assay [1] was “B (B = 25 to 50-fold selective for hTREX1)”. Further, the IC50 at full length human TREX1 and on full length mouse TREX1 was greater than 10 nM each time.
Regarding `CC(c1nc(C(=O)Nc2cnoc2)c(O)c(=O)n1C)C(c1cnn(C)c1)c1ccc(O)cc1C#N` (single isomer, unassigned) [Example 80 D1E2], the “hTREX1 vs hTREX2 selectivity” value in assay [1] was “C (C = >50 fold selective for hTREX1)”. Moreover, the IC50 at full length human TREX1 and at full length mouse TREX1 was greater than 10 nM throughout.
`Cc1ncc(C(c2ccccc2C#N)C(C)c2nc(C(=O)Nc3cnoc3)c(O)c(=O)n2C)nc1C` (single isomer, unassigned) [Example 81 D2E2]: in assay [1], the “hTREX1 vs hTREX2 selectivity” value is reported as “B (B = 25 to 50-fold selective for hTREX1)”. Besides, the IC50 on full length human TREX1 and on full length mouse TREX1 was greater than 10 nM each time.
`CC(c1nc(C(=O)Nc2cnoc2)c(O)c(=O)n1C)C(c1cnn(CC2COC2)c1)c1ccccc1Cl` (single isomer, unassigned) [Example 88 D2E2]: the “hTREX1 vs hTREX2 selectivity” value in assay [1] was “A (A = <25 fold selective for hTREX1)”. In addition, the IC50 on full length human TREX1 and at full length mouse TREX1 was greater than 10 nM in each case.
On to `Cc1ccnn1C(c1ccccc1C#N)C(C)c1nc(C(=O)Nc2cnoc2)c(O)c(=O)n1C` (single isomer, unassigned) [Example 138 D1E2], for which the “hTREX1 vs hTREX2 selectivity” value in assay [1] was “A (A = <25 fold selective for hTREX1)”. Besides, the IC50 at full length human TREX1 and on full length mouse TREX1 was greater than 10 nM in each case.
With `Cc1cnn(C(c2ccccc2Cl)C(C)c2nc(C(=O)Nc3cnoc3)c(O)c(=O)n2C)c1` (single isomer, unassigned) [Example 133 D1E1], the “hTREX1 vs hTREX2 selectivity” value in assay [1] is “A (A = <25 fold selective for hTREX1)”. Besides, the IC50 on full length human TREX1 and at full length mouse TREX1 was greater than 10 nM each time.
On to `Cc1cc(C(c2cc(F)ccc2Cl)C(C)c2nc(C(=O)Nc3cnoc3)c(O)c(=O)n2C)n(C)n1` (single isomer, unassigned) [Example 113 D2E1], for which the “hTREX1 vs hTREX2 selectivity” value in assay [1] is reported as “A (A = <25 fold selective for hTREX1)”. Besides, the IC50 at full length human TREX1 and at full length mouse TREX1 was greater than 10 nM in each case.
As to `Cc1cnc(C)c(C(c2cc(F)ccc2C#N)C(C)c2nc(C(=O)Nc3cnoc3)c(O)c(=O)n2C)n1` (single isomer, unassigned) [Example 119 DIE1], the “hTREX1 vs hTREX2 selectivity” value in assay [1] is on record as “C (C = >50 fold selective for hTREX1)”. Further, the figures for the IC50 at full length human TREX1 and on full length mouse TREX1 were less than 1 nM and 1 to 10 nM, respectively.
`CC(=O)N(C)c1nn(C)cc1C(c1ccccc1C#N)C(C)c1nc(C(=O)Nc2cnoc2)c(O)c(=O)n1C` (single isomer, unassigned) [Example 153 D1E2]: the “hTREX1 vs hTREX2 selectivity” value in assay [1] was “A (A = <25 fold selective for hTREX1)”. Further, the IC50 at full length human TREX1 and on full length mouse TREX1 was greater than 10 nM throughout.
On to `CC(c1nc(C(=O)Nc2cnoc2)c(O)c(=O)n1C)C(c1cnn(C)c1)c1cccnc1C#N` (single isomer, unassigned) [Example 7 D2E2], for which, in assay [1], the “hTREX1 vs hTREX2 selectivity” value is recorded as “B (B = 25 to 50-fold selective for hTREX1)”. For the same compound, the IC50 at full length human TREX1 and at full length mouse TREX1 was greater than 10 nM each time.
For the compound `COCCn1ncc(C(c2cc(F)ccc2C#N)C(C)c2nc(C(=O)Nc3cnoc3)c(O)c(=O)n2C)c1C` (single isomer, unassigned) [Example 104 D2E1], in assay [1], the “hTREX1 vs hTREX2 selectivity” value is “A (A = <25 fold selective for hTREX1)”. Further, the IC50 at full length human TREX1 and on full length mouse TREX1 was greater than 10 nM each time.
In the case of `Cc1cnc(C)c(C(c2ccccc2C#N)C(C)c2nc(C(=O)Nc3cnoc3)c(O)c(=O)n2C)n1` (single isomer, unassigned) [Example 82 D2E2], the “hTREX1 vs hTREX2 selectivity” value in assay [1] is recorded as “B (B = 25 to 50-fold selective for hTREX1)”. The IC50 at full length human TREX1 and at full length mouse TREX1 was greater than 10 nM in each case.
Consider `Cc1n[nH]c(C)c1C(c1ccccc1C#N)C(C)c1nc(C(=O)Nc2cnoc2)c(O)c(=O)n1C` (single isomer, unassigned) [Example 95 D2E1], for which, in assay [1], the “hTREX1 vs hTREX2 selectivity” value is given as “A (A = <25 fold selective for hTREX1)”. The IC50 on full length human TREX1 and at full length mouse TREX1 was greater than 10 nM throughout.
In the case of `Cc1cc(C)n(C(c2ccccc2Cl)C(C)c2nc(C(=O)Nc3cnoc3)c(O)c(=O)n2C)n1` (single isomer, unassigned) [Example 136 D1E1], in assay [1], the “hTREX1 vs hTREX2 selectivity” value is “A (A = <25 fold selective for hTREX1)”. In addition, the IC50 at full length human TREX1 and on full length mouse TREX1 was greater than 10 nM in each case.
Take `CC(c1nc(C(=O)Nc2cnoc2)c(O)c(=O)n1C)C(c1cnc(C(F)(F)F)cn1)c1ccccc1C#N` (single isomer, unassigned) [Example 118 D2E2]: the “hTREX1 vs hTREX2 selectivity” value in assay [1] was “A (A = <25 fold selective for hTREX1)”. The IC50 at full length human TREX1 and on full length mouse TREX1 was greater than 10 nM throughout.
On to `CC(c1nc(C(=O)Nc2cnoc2)c(O)c(=O)n1C)C(c1cnn(CCN2CCN(C)CC2)c1)c1ccccc1C#N` (single isomer, unassigned) [Example 32 D2E1], for which the “hTREX1 vs hTREX2 selectivity” value in assay [1] is “C (C = >50 fold selective for hTREX1)”. In addition, the IC50 on full length human TREX1 and at full length mouse TREX1 was greater than 10 nM throughout.
For `Cc1ccc(C(c2ccccc2C#N)C(C)c2nc(C(=O)Nc3cnoc3)c(O)c(=O)n2C)cn1` (single isomer, unassigned) [Example 5 D2E1], the “hTREX1 vs hTREX2 selectivity” value in assay [1] is given as “B (B = 25 to 50-fold selective for hTREX1)”. Besides, the IC50 on full length human TREX1 and on full length mouse TREX1 was greater than 10 nM throughout.
